The subject of data set [1] is HBV. The data set can be described thus: Anti-viral assay in HepG2.2.15 cells: HBV inhibitory activity (HBV DNA in culture medium by q-PCR). Type of data set: cell-based. As to conditions: Hepatitis B virus, HepG2.2.15, 144 h, HepG2.2.15 cells, 6 days treatment, HBV DNA in culture medium by q-PCR, highest concentration 10 uM; read-out: EC50. The text has this:
(§1) Example 2: Anti-Viral Assay in HepG2.2.15 Cells
(§2) 1.1. Cell Line • HepG2.2.15 (the HepG2.2.15 cell line can be produced by transfection of the HepG2 cell line as described in Sells, Chen, and Acs 1987 (Proc. Natl. Acad. Sci. USA 84:1005-1009), and the HepG2 cell line is available from ATCC® under number HB-8065™). Reagents • DMEM/F12 (INVITROGEN-11330032) • FBS (GIBCO-10099-141) • Dimethyl sulfoxide(DMSO) (SIGMA-D2650) • Penicillin-streptomycin solution (HYCLONE-SV30010) • NEAA (INVITROGEN-1114050) • L-Glutamine (INVITROGEN-25030081) • Geneticin Selective Antibiotic (G418, 500 mg/ml) (INVITROGEN-10131027) • Trypsinase digestion solution (INVITROGEN-25300062) • CCK8 (BIOLOTE-35004) • QIAamp 96 DNA Blood Kit (12) (QIAGEN-51162) • FastStart Universal Probe Mast Mix (ROCHE-04914058001)
(§3) 2.1. HBV Inhibitory Activity and Cytotoxicity Determination
(§4) Seed the cell HepG2.2.15 cells into 96-well plate in 2% FBS culture medium at the density of 40,000 cells/well and 5,000 cells/well for HBV inhibitory activity and cytotoxicity determination, respectively. After seeding, incubate the cell plates at 37° C., 5% CO2 overnight. The next day, medium containing compounds is added to the cell to treat the cells for 6 days with medium refreshed once in the middle of the treatment. 8 dose points with 3 folds dilution of each compound were adopted and the highest concentration of the compounds is 10 uM and 100 uM for HBV inhibitory activity and cytotoxicity determination, respectively.
The HBV DAN change in the cell culture medium induced by the compounds is measured by q-PCR method. Briefly, the HBV DNA in the culture medium is extracted using QIAamp 96 DNA Blood Kit according to the manual and then quantified by q-PCR using the primers and probe in the table below.
(§5) EC50 and CC50 values are calculated by the GRAPHPAD PRISM software.

Data set [2] can be described thus: Cytotoxicity determination in HepG2.2.15 cells (CCK-8). Type of data set: cell-based. As to conditions: human, 6 days treatment, CCK-8, highest concentration 100 uM.
Description: as §1, §2, §3, §4
After 6 days of compounds treatment, add 20 μl CCK-8 reagents to each well of cytotoxicity assay plates, incubate the plate at 37° C., 5% CO2 for 2.5 h and measure the absorbance at 450 nm wavelength, at the same time read the absorbance at 630 nm wavelength as reference.
as §5

Bounds are passed on as bounds.

As to `COC(=O)C1=C(C2CCN(c3ncc(CC(=O)O)cn3)CC2)NC(c2nccs2)=NC1c1cccc(F)c1Cl` (single isomer, unassigned) [II-9-B, 2-(2-(4-(6-(2-Chloro-3-fluorophenyl)-5-(methoxycarbonyl)-2-(thiazol-2-yl)-3,6-dihydropyrimidin-4-yl)piperidin-1-yl)pyrimidin-5-yl)acetic Acid], the EC50 in data set [1] is less than 4.6 nM. The same compound showed a CC50 at 6 days in data set [2] of 4900 nM.
The like results for `CCOC(=O)C1=C([C@H]2CC[C@H](c3cc(C(=O)O)n(C)n3)CC2)NC(c2nccs2)=NC1c1ccc(F)c(F)c1Cl` (single isomer, unassigned) [Compound I-36-B, (trans)-3-(4-(6-(2-Chloro-3,4-difluorophenyl)-5-(ethoxycarbonyl)-2-(thiazol-2-yl)-3,6-dihydropyrimidin-4-yl)cyclohexyl)-1-methyl-1H-pyrazole-5-carboxylic Acid] were, in that order, 6.2 nM and 5940 nM.
`CCOC(=O)C1=C(C2CCN(c3cc(C)c(C(=O)O)nn3)CC2)NC(c2nccs2)=NC1c1ccc(F)c(F)c1Cl` (single isomer, unassigned) [II-46-B, 6-(4-(6-(2-Chloro-3,4-difluorophenyl)-5-(ethoxycarbonyl)-2-(thiazol-2-yl)-3,6-dihydropyrimidin-4-yl)piperidin-1-yl)-4-methylpyridazine-3-carboxylic Acid]: in data set [1], the EC50 was 100 nM. The compound further gave a CC50 at 6 days in data set [2] of 3670 nM.
As for `COC(=O)C1=C(C2CCN(c3ncc(C(=O)O)s3)CC2)NC(c2nccs2)=NC1c1cccc(F)c1Br` (single isomer, unassigned) [II-83-B, 2-(4-(6-(2-Bromo-3-fluorophenyl)-5-(methoxycarbonyl)-2-(thiazol-2-yl)-3,6-dihydropyrimidin-4-yl)piperidin-1-yl)thiazole-5-carboxylic Acid], in data set [1], the EC50 amounted to 16 nM. Further, half-maximal cytotoxicity in data set [2] (CC50 at 6 days) was put at 2840 nM.
For the compound `COC(=O)C1=C([C@H]2CC[C@H](c3nc(C(=O)O)co3)CC2)NC(c2ncc(F)cc2F)=NC1c1ccc(F)c(F)c1Cl` (single isomer, unassigned) [Compound I-7-B, (trans)-2-(4-(6-(2-chloro-3,4-difluorophenyl)-2-(3,5-difluoropyridin-2-yl)-5-(methoxycarbonyl)-3,6-dihydropyrimidin-4-yl)cyclohexyl)oxazole-4-carboxylic acid], in data set [1], the EC50 came out at 24 nM. In data set [2], this compound displayed a CC50 at 6 days of 14300 nM.
The like results for `COC(=O)C1=C([C@H]2CC[C@H](c3nc(CC(=O)O)co3)CC2)NC(c2nccs2)=NC1c1cccc(F)c1C` (single isomer, unassigned) [Compound I-21-B, (trans)-2-(2-(4-(6-(3-Fluoro-2-methylphenyl)-5-(methoxycarbonyl)-2-(thiazol-2-yl)-3,6-dihydropyrimidin-4-yl)cyclohexyl)oxazol-4-yl)acetic Acid] were, in that order, 57 nM and 8040 nM.
As for `CCOC(=O)C1=C(C2CCN(c3cnc(C(=O)O)cn3)CC2)NC(c2nccs2)=NC1c1ccc(F)c(F)c1Cl` (single isomer, unassigned) [II-51-B, 5-(4-(6-(2-Chloro-3,4-difluorophenyl)-5-(ethoxycarbonyl)-2-(thiazol-2-yl)-3,6-dihydropyrimidin-4-yl)piperidin-1-yl)pyrazine-2-carboxylic Acid], the EC50 in data set [1] is less than 4.6 nM. The compound also registered a CC50 at 6 days in data set [2] of 670 nM.
The like results for `CCOC(=O)C1=C([C@H]2CC[C@H](c3ncc(C(=O)O)o3)CC2)NC(c2nccs2)=NC1c1ccc(F)c(F)c1Cl` (single isomer, unassigned) [Compound I-26-B, (trans)-2-(4-(6-(2-chloro-3,4-difluorophenyl)-5-(ethoxycarbonyl)-2-(thiazol-2-yl)-3,6-dihydropyrimidin-4-yl)cyclohexyl)oxazole-5-carboxylic Acid] were, in that order, 55 nM and 15500 nM.
As for `CCOC(=O)C1=C(C2CCN(c3ncc(C(=O)O)cn3)CC2)NC(c2nccs2)=NC1c1ccc(F)c(F)c1Cl` (single isomer, unassigned) [II-74-B, 2-(4-(6-(2-Chloro-3,4-difluorophenyl)-5-(ethoxycarbonyl)-2-(thiazol-2-yl)-3,6-dihydropyrimidin-4-yl)piperidin-1-yl)pyrimidine-5-carboxylic Acid], in data set [1], the EC50 is 6.6 nM. In addition, the midpoint of cytotoxicity in data set [2], the CC50 at 6 days, lay at 9310 nM.
In the case of `COC(=O)C1=C(C2CCN(c3ncc(C)c(C(=O)O)n3)CC2)NC(c2nccs2)=NC1c1cccc(F)c1Br` (single isomer, unassigned) [II-98-B, 2-(4-(6-(2-Bromo-3-fluorophenyl)-5-(methoxycarbonyl)-2-(thiazol-2-yl)-3,6-dihydropyrimidin-4-yl)piperidin-1-yl)-5-methylpyrimidine-4-carboxylic Acid], the EC50 in data set [1] turned out to be 20 nM. Besides, in data set [2], it took 21400 nM to reach half-maximal cytotoxicity (CC50 at 6 days).
With `CCOC(=O)C1=C(C2CCN(c3ncc(F)c(C(=O)O)n3)CC2)NC(c2nccs2)=NC1c1ccc(F)c(F)c1Cl` (single isomer, unassigned) [II-62-B, 2-(4-(6-(2-Chloro-3,4-difluorophenyl)-5-(ethoxycarbonyl)-2-(thiazol-2-yl)-3,6-dihydropyrimidin-4-yl)piperidin-1-yl)-5-fluoropyrimidine-4-carboxylic Acid], the EC50 in data set [1] worked out at 16 nM. This compound also gave a CC50 at 6 days in data set [2] of 6690 nM.
Turning to `CCOC(=O)C1=C(C2CCN(c3ncc(C)c(C(=O)O)n3)CC2)NC(c2nccs2)=NC1c1cccc(F)c1Cl` (single isomer, unassigned) [II-22-B, 2-(4-(6-(2-Chloro-3-fluorophenyl)-5-(ethoxycarbonyl)-2-(thiazol-2-yl)-3,6-dihydropyrimidin-4-yl)piperidin-1-yl)-5-methylpyrimidine-4-carboxylic Acid], the EC50 in data set [1] stood at 15 nM. Further, the midpoint of cytotoxicity in data set [2], the CC50 at 6 days, lay at 11200 nM.
The like results for `CCOC(=O)C1=C(C2CCN(c3ncc(C)c(C(=O)O)n3)CC2)NC(c2nccs2)=NC1c1ccc(F)c(F)c1Cl` (single isomer, unassigned) [II-63-B, 2-(4-(6-(2-Chloro-3,4-difluorophenyl)-5-(ethoxycarbonyl)-2-(thiazol-2-yl)-3,6-dihydropyrimidin-4-yl)piperidin-1-yl)-5-methylpyrimidine-4-carboxylic Acid] were, in that order, 21 nM and 8280 nM.
The like results for `CCOC(=O)C1=C([C@H]2CC[C@H](c3nc(C(=O)O)c(C)o3)CC2)NC(c2nccs2)=NC1c1ccc(F)c(F)c1Cl` (single isomer, unassigned) [Compound I-14-B, (trans)-2-(4-(6-(2-Chloro-3,4-difluorophenyl)-5-(ethoxycarbonyl)-2-(thiazol-2-yl)-3,6-dihydropyrimidin-4-yl)cyclohexyl)-5-methyloxazole-4-carboxylic Acid] were, in that order, 4.7 nM and 3720 nM.
Take `COC(=O)C1=C(C2CCN(c3ncc(N(C)C)c(C(=O)O)n3)CC2)NC(c2nccs2)=NC1c1ccc(F)c(F)c1Cl` (single isomer, unassigned) [II-91-B, 2-(4-(6-(2-chloro-3,4-difluorophenyl)-5-(methoxycarbonyl)-2-(thiazol-2-yl)-3,6-dihydropyrimidin-4-yl)piperidin-1-yl)-5-(dimethylamino)pyrimidine-4-carboxylic Acid]: the 50% effective concentration (EC50) in data set [1] turned out to be 12 nM. Besides, the CC50 at 6 days in data set [2] was 26100 nM.
The like results for `COC(=O)C1=C([C@H]2CC[C@H](c3nc(C(=O)O)co3)CC2)NC(c2nccs2)=NC1c1ccc(F)c(F)c1Cl` (single isomer, unassigned) [Compound I-1-C, (trans)-2-(4-(6-(2-Chloro-3,4-difluorophenyl)-5-(methoxycarbonyl)-2-(thiazol-2-yl)-3,6-dihydropyrimidin-4-yl)cyclohexyl)oxazole-4-carboxylic Acid] were, in that order, 7.5 nM and 13600 nM.
The like results for `CCOC(=O)C1=C(C2CCN(c3nncs3)CC2)NC(c2nccs2)=NC1c1ccc(F)c(F)c1Cl` (single isomer, unassigned) [II-75-X, Ethyl 6-(1-(1,3,4-thiadiazol-2-yl)piperidin-4-yl)-4-(2-chloro-3,4-difluorophenyl)-2-(thiazol-2-yl)-1,4-dihydropyrimidine-5-carboxylate] were, in that order, 30 nM and 9810 nM.

In general, EC50 refers to the concentration that produces a half-maximal response. The CC50 is the concentration that lowers cell viability or growth by half. A higher CC50 goes with lower toxicity to the cells.

(Values after patent publication US11053235B2, “Substituted 1,4-dihydropyrimidines for the treatment of HBV infection or HBV-induced diseases” (Janssen Sciences Ireland Unlimited Company, priority 2018, dated 2021).)
